For 4 compounds, Percent control results are on record in publication PMC4858680, “A platinum-based hybrid drug design approach to circumvent acquired resistance to molecular targeted tyrosine kinase inhibitors” (Scientific Reports, 2016).

Targets include TRKC (Homo sapiens, UniProt Q16288); FGFR2 (Homo sapiens, UniProt P21802); FYN (Homo sapiens, UniProt P06241).
Common to all, as to conditions: 10 μM
Another assay deals with T1, EPHA1 (Homo sapiens, UniProt P21709).
T1 sequence (P21709 26-976): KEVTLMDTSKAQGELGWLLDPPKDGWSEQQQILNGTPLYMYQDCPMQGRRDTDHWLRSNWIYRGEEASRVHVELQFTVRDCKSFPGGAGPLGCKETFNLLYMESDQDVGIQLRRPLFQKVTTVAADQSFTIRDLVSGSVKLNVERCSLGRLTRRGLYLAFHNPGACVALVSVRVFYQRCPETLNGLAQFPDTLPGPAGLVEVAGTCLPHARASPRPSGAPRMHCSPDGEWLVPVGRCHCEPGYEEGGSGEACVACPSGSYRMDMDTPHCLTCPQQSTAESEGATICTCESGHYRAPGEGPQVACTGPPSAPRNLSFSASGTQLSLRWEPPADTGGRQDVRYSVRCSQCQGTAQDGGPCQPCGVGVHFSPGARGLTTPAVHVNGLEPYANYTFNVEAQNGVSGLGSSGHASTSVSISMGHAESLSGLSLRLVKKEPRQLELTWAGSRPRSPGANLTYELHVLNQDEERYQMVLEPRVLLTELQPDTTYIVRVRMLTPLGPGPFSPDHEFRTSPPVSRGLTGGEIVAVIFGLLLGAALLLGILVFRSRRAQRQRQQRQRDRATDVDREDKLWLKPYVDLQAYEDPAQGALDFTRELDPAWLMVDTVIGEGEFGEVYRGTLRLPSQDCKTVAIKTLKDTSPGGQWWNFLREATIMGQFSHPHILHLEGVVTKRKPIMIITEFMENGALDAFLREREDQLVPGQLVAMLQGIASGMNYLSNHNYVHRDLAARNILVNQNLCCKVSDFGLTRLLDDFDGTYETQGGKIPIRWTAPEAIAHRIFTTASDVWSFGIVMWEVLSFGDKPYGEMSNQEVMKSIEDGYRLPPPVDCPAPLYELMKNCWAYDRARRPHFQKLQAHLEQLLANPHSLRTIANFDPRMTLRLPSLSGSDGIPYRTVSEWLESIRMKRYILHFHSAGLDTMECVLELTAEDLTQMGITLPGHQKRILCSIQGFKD

In the next assay the target is T2, EPHB6 (Homo sapiens, UniProt O15197).
T2 sequence (O15197 32-1021): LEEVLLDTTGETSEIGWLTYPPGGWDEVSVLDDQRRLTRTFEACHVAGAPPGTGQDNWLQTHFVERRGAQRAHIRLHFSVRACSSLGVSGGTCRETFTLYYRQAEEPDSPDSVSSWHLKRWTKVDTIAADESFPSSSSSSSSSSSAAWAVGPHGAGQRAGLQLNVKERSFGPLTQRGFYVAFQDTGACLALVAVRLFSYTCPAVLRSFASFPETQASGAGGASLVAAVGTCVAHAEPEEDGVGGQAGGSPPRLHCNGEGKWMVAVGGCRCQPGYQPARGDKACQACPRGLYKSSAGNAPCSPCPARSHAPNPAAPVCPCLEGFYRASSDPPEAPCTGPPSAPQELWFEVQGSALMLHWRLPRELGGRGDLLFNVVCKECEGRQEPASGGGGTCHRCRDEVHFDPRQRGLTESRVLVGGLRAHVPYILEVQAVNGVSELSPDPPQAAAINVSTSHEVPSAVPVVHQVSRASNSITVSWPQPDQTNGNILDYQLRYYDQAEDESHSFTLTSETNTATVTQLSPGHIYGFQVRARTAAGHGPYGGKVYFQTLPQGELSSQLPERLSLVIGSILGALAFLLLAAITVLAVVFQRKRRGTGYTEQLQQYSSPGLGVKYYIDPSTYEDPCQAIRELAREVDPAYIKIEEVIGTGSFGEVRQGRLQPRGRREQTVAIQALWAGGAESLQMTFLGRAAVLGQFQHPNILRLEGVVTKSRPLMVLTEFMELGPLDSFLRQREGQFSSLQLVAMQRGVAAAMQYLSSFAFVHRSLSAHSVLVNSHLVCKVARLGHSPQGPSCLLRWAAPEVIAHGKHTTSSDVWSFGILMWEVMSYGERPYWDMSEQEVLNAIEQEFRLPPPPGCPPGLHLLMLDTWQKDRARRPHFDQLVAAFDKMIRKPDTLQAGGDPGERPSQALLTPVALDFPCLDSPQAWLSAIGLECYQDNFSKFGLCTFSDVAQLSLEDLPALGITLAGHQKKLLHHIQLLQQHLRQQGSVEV

The structures appear in SMILES notation.

Sequence of TRKC (Q16288 32-839): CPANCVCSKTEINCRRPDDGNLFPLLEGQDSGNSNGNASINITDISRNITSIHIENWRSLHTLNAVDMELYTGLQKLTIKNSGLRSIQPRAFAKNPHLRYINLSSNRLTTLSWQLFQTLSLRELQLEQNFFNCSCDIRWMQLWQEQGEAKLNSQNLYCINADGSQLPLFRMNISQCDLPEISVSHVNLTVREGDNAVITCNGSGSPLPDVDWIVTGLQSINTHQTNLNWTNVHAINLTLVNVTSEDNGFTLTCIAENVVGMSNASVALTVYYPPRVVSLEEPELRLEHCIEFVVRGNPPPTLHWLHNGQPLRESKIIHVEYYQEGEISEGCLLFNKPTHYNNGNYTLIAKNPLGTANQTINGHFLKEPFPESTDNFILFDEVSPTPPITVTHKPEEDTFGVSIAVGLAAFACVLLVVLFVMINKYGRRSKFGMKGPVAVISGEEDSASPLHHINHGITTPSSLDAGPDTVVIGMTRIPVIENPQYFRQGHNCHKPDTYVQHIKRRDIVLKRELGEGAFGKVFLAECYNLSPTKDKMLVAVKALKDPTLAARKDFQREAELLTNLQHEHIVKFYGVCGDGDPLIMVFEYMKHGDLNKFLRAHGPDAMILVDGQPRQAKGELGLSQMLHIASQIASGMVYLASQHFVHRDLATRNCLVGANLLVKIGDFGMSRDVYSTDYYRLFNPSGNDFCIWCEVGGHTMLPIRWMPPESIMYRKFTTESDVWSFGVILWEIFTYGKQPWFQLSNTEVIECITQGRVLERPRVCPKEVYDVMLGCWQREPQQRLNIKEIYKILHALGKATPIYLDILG
Sequence of FGFR2 (P21802 22-821): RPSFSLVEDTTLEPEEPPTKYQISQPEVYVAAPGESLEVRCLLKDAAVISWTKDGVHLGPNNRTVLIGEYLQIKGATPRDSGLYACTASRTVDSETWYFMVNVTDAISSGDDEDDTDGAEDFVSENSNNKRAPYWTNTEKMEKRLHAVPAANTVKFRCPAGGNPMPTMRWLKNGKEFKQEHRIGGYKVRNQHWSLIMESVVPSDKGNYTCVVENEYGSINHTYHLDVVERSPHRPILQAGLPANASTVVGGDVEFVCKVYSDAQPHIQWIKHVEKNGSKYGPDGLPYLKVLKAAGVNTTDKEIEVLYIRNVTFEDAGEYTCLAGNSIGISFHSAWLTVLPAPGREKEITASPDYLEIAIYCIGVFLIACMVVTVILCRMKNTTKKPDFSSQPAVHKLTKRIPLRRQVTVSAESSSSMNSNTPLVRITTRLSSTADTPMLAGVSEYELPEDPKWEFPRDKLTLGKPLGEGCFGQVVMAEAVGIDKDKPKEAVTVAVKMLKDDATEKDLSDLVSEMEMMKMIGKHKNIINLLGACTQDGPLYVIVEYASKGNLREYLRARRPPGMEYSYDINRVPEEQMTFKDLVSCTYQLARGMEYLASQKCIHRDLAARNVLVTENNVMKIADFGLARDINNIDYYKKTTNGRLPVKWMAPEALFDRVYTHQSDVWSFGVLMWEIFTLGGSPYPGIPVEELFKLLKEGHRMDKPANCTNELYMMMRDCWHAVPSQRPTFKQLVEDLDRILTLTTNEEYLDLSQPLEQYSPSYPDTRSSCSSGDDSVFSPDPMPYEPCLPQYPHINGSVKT
Sequence of FYN (P06241 whole entry): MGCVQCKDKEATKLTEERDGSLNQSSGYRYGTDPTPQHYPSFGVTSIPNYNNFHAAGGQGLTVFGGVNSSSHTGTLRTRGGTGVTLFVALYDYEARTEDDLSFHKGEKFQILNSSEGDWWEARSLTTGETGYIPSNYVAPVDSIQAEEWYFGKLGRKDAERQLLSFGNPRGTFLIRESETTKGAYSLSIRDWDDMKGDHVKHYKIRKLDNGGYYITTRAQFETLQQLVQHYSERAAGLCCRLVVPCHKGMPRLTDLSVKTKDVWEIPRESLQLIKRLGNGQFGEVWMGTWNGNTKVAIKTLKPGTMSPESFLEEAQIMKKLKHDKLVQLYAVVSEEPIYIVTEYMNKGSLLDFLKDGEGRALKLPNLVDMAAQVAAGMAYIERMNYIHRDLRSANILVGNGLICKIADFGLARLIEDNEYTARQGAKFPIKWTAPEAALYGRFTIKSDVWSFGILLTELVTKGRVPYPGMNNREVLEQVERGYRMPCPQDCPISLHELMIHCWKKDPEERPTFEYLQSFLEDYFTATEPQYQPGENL

In the case of `Cc1ccc(NC(=O)c2ccc(CN3CCN(C)CC3)cc2)cc1Nc1nccc(-c2cccnc2)[n+]1[Pt-2]1([Cl])[NH2+]C2CCCCC2[NH2+]1` (stereo not shown) [1b, oxaliplatin-imatinib], the Percent control came to 100% on TRKC; 86% on EPHA1; 100% on FGFR2; 92% on EPHB6; 78% at FYN.
`COc1cc2c(Nc3ccc(Br)cc3F)[n+]([Pt-2]3([Cl])[NH2+]C4CCCCC4[NH2+]3)cnc2cc1OCC1CCN(C)CC1` (stereo not shown) [3b, oxaliplatin-vandetanib]: the Percent control on TRKC came out at 98%; at EPHA1, 11%; on FGFR2, 67%; on EPHB6, 2.5%; at FYN it was 32%.
As for `C#Cc1cccc(Nc2c3cc(OCCOC)c(OCCOC)cc3nc[n+]2[Pt@SP2-2]([NH3+])([NH3+])[Cl])c1` [2a, cisplatin-erlotinib], the Percent control on TRKC is on record as 93%; at EPHA1, 73%; on FGFR2 it was 91%; on EPHB6, 76%; on FYN it was 72%.
On to `Cc1ccc(NC(=O)c2ccc(CN3CCN(C)CC3)cc2)cc1Nc1nccc(-c2cccnc2)n1` [Imatinib, reference compound], for which the Percent control at TRKC, at EPHA1, at FGFR2 and at EPHB6 was 100% each time.
